Four compounds from paper PMC3823026, “Protein–Protein Interaction Regulates the Direction of Catalysis and Electron Transfer in a Redox Enzyme Complex” (Journal of the American Chemical Society, 2013) can be followed below.

Common to all, as to assay type: biochemical
Experiment [1] concerns the target T1, CymA-Fcc3 complex (Shewanella oneidensis, UniProt Q8E8S0).
T1 construct: isolated from MR-1; with Fumarate reductase (cytochrome), flavocytochrome c3
T1 sequence (Q8E8S0 1-187): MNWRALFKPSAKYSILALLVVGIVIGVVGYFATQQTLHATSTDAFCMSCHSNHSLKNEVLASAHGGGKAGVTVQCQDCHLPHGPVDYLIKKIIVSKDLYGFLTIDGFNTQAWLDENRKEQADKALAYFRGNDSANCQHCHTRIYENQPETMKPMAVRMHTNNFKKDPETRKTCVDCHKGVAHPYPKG
T1 sequence (P83223 26-596 partner): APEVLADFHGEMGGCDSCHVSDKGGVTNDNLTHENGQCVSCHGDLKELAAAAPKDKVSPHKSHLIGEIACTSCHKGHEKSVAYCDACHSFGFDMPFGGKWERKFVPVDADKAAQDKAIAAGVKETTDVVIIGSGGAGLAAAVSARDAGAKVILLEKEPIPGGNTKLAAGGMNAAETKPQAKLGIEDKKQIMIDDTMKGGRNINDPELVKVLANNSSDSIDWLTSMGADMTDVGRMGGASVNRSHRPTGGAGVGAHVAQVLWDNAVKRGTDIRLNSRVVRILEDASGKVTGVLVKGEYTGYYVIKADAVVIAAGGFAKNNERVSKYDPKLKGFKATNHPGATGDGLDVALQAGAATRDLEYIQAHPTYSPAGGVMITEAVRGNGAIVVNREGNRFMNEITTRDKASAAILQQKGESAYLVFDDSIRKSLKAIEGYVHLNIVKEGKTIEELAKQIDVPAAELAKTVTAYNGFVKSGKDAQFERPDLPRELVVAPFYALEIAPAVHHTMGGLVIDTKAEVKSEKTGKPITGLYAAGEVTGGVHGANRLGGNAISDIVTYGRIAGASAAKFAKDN
Briefly: cyclic voltammetry, catalytic fumarate reduction current on membrane-modified gold electrode. Conditions: 1 mM fumarate, 1% (w/w) MQ-7, pH 7.4, 21 °C; competitive quinol-site inhibitor.

The target in experiment [2] is T2, CymA (Shewanella oneidensis, UniProt Q8E8S0).
T2 construct: full-length recombinant tetraheme CymA (24 kDa), isolated from MR-1, reconstituted in POPC/cardiolipin membrane, no Fcc3
T2 sequence (Q8E8S0 1-187): T1 sequence (Q8E8S0 1-187)
The experiment is described as follows: cyclic voltammetry, catalytic oxidation current with dithionite (menaquinone reduction). To be noted: 1 mM dithionite, 1% (w/w) MQ-7, pH 7.4, 21 °C.

Experiment [3] concerns the target T2, CymA. The experiment is described as follows: cyclic voltammetry, dithionite as reductant. Conditions: 1 mM dithionite, pH 7.4, 21 °C, no Fcc3.
For the next experiment, the target named is T3, Fcc3 (Shewanella oneidensis, UniProt P83223).
T3 construct: gene fccA; monomer in solution; with Membrane anchored tetraheme cytochrome c CymA
T3 sequence (P83223 26-596): T1 sequence (P83223 26-596 partner)
T3 sequence (Q8E8S0 1-187 partner): T1 sequence (Q8E8S0 1-187)
Briefly: cyclic voltammetry, catalytic reduction current. To be noted: 1 mM fumarate, electrons from MQ-7 via CymA, pH 7.4, 21 °C.

The target in experiment [4] is T1, CymA-Fcc3 complex. Briefly: cyclic voltammetry, membrane-modified gold electrode, MQ-7 content varied. Conditions: fumarate 1 mM as acceptor, pH 7.4, 21 °C; MQ-7 in membrane as % (w/w); Michaelis-Menten fit, constant not given.

As to `CCCCCCCc1cc(O)c2ccccc2[n+]1[O-]` [2-n-heptyl-4-hydroxyquinoline N-oxide, 2-n-Heptyl-4-hydroxyquinoline N-oxide], the “inhibition at 10 μM” value on CymA-Fcc3 complex [1] is recorded as “The addition of HQNO inhibited catalytic fumarate reduction (Figure 2B)”; against CymA [2], “a catalytic oxidation signal appears that is inhibited by addition of HQNO”.

Regarding `CC(C)=CCC/C(C)=C/CC/C(C)=C/CC/C(C)=C/CC/C(C)=C/CC/C(C)=C/CC/C(C)=C/CC1=C(C)C(=O)c2ccccc2C1=O` [Menaquinone-7], the “cyclic voltammetry, dithionite as reductant” value at CymA [3] is on record as “CymA is only able to reduce MQ-7 in the absence of Fcc3”. Take `O=C(O)/C=C/C(=O)O` [fumarate]: at Fcc3, the “cyclic voltammetry, catalytic reduction current” value is given as “addition of fumarate had a large effect on the appearance of the CV”.

In the case of `CC(C)=CCC/C(C)=C/CC/C(C)=C/CC/C(C)=C/CC/C(C)=C/CC/C(C)=C/CC/C(C)=C/Cc1c(C)c(O)c2ccccc2c1O` [menaquinol-7], the “cyclic voltammetry, membrane-modified gold electrode, MQ-7 content varied” value on CymA-Fcc3 complex [4] is “the CymA-Fcc3 complex is able to oxidize MQ-7 in SSMs”.
